The values below come from ChEMBL document CHEMBL5236632, “Membrane-Active Nonivamide Derivatives as Effective Broad-Spectrum Antimicrobials: Rational Design, Synthesis, and Biological Evaluation” (J Med Chem, 2022).

Values after ≈ are worked out from the molar mass of the structure shown. Active and inactive are the calls of the source. The calls are words filed in the database; no cut-off is given here.

Data set [1] has as its system Acinetobacter baumannii. Description: Antibacterial activity against Acinetobacter baumannii ATCC 17978 assessed as inhibition of visible growth measured after 18 to 24 hrs by broth dilution method. The data set is classed as functional. The settings on record: time 18-24 hrs.
Data set [2] deals with Klebsiella pneumoniae. Description: Antibacterial activity against Klebsiella pneumoniae ATCC 10031 assessed as inhibition of visible growth measured after 18 to 24 hrs by broth dilution method. The class given is functional. The settings on record: time 18-24 hrs. For orientation: In broth dilution the organism is exposed to a series of concentrations in liquid medium.
In data set [3] the test system is Escherichia coli. Description: Antibacterial activity against Escherichia coli ATCC 25922 assessed as inhibition of visible growth measured after 18 to 24 hrs by broth dilution method. The settings on record: time 18-24 hrs. The class given is functional.
The test system of data set [4] is Pseudomonas aeruginosa. As to the kind of experiment: Antibacterial activity against Pseudomonas aeruginosa ATCC 9027 assessed as inhibition of visible growth measured after 18 to 24 hrs by broth dilution method. The class given is functional. The settings on record: time 18-24 hrs.
In data set [5] the test system is Staphylococcus aureus. As to the kind of experiment: Antibacterial activity against methicillin-resistant Staphylococcus aureus N315 assessed as inhibition of visible growth measured after 18 to 24 hrs by broth dilution method. The settings on record: time 18-24 hrs. The data set is classed as functional.
Data set [6] concerns Cell membrane. As to the kind of experiment: Induction of membrane depolarization in Escherichia coli ATCC 25922 assessed as increase in fluorescence intensity at 4 to 8 times MIC measured for 60 mins by DiSC3(5) dye based fluorescence method. The class given is subcellular.
Data set [7] deals with Klebsiella pneumoniae. Description: Antibacterial activity against Klebsiella pneumoniae ATCC 14581 assessed as inhibition of visible growth measured after 18 to 24 hrs by broth dilution method. The class given is functional. To be noted: time 18-24 hrs.
For data set [8], the system named is Cell membrane. As to the kind of experiment: Induction of outer membrane permeability in Escherichia coli ATCC 25922 assessed as increase fluoresence intensity at 4 to 8 times of MIC measured for 60 mins by NPN uptake assay. The class given is subcellular.
Data set [9] in a line: Haemolytic activity in rabbit red blood cells incubated for 60 mins by k multi-mode reader relative to control. To be noted: for HC5: erythrocyte, 1 h. The class given is toxicity, cell-based, Oryctolagus cuniculus, Erythrocyte.
The nature of data set [10]: Selectivity ratio, HC50 for hemolytic activity in rabbit RBC to MIC for antibacterial activity against Pseudomonas aeruginosa ATCC 9027. The data set is classed as toxicity.
The nature of data set [11]: Cytotoxicity against HEK293 cells assessed as cell viability after 24 hrs incubation byCCK-8 assay. The data set is classed as toxicity, cell-based. To be noted: human.
In data set [12] the test system is Cell membrane. As to the kind of experiment: Induction of membrane depolarization in Staphylococcus aureus ATCC 29213 assessed as increase in fluorescence intensity at 4 to 8 times MIC measured for 60 mins by DiSC3(5) dye based fluorescence method. The class given is subcellular.
Data set [13] has as its system Staphylococcus aureus. As to the kind of experiment: Antibacterial activity against methicillin-resistant Staphylococcus aureus NCTC 10442 assessed as inhibition of visible growth measured after 18 to 24 hrs by broth dilution method. The class given is functional. The settings on record: time 18-24 hrs.
For data set [14], the system named is Acinetobacter baumannii. Description: Antibacterial activity against Acinetobacter baumannii R2889 assessed as inhibition of visible growth measured after 18 to 24 hrs by broth dilution method. The class given is functional. The settings on record: time 18-24 hrs.
The subject of data set [15] is Staphylococcus aureus. Description: Antibacterial activity against Staphylococcus aureus ATCC 29213 assessed as inhibition of visible growth measured after 18 to 24 hrs by broth dilution method. The data set is classed as functional. To be noted: time 18-24 hrs.
A short description of data set [16]: Cytotoxicity against mouse NCTC clone 929 cells assessed as cell viability after 24 hrs incubation byCCK-8 assay. The data set is classed as toxicity, cell-based.
Data set [17] concerns Escherichia coli. As to the kind of experiment: Antibacterial activity against Escherichia coli ATCC 25922 assessed as reduction in bacterial load at 8 time of MIC measured with in 30 mins by time kill assay. The data set is classed as functional. To be noted: 0.5 h.
Data set [18] relates to Escherichia coli. As to the kind of experiment: Drug resistance development in Escherichia coli ATCC 25922 assessed as fold change in MIC measured after 20 passages. The class given is functional.
The test system of data set [19] is Staphylococcus aureus. Description: Antibacterial activity against Staphylococcus aureus ATCC 29213 assessed as reduction in bacterial load at 8 time of MIC measured after 8 hrs by time kill assay. The data set is classed as functional.
For data set [20], the system named is Staphylococcus aureus. As to the kind of experiment: Drug resistance development in Staphylococcus aureus ATCC 29213 assessed as fold change in MIC measured after 20 passages. The data set is classed as functional.
Data set [21] in a line: Selectivity ratio, HC50 for hemolytic activity in rabbit RBC to MIC for antibacterial activity against methicillin-resistant Staphylococcus aureus NCTC 10442. The class given is toxicity. To be noted: rabbit red blood cells.
Data set [22] can be described thus: Selectivity ratio, HC50 for hemolytic activity in rabbit RBC to MIC for antibacterial activity against methicillin-resistant Staphylococcus aureus N315. To be noted: rabbit red blood cells. The class given is toxicity.
Data set [23] in a line: Selectivity ratio, HC50 for hemolytic activity in rabbit RBC to MIC for antibacterial activity against Klebsiella pneumoniae ATCC 14581. The data set is classed as toxicity. To be noted: rabbit red blood cells.
Data set [24] is described as follows: Selectivity ratio, HC50 for hemolytic activity in rabbit RBC to MIC for antibacterial activity against Acinetobacter baumannii R2889. The data set is classed as toxicity. To be noted: rabbit red blood cells.
The nature of data set [25]: Selectivity ratio, HC50 for hemolytic activity in rabbit RBC to MIC for antibacterial activity against Acinetobacter baumannii ATCC 17978. The data set is classed as toxicity. To be noted: rabbit red blood cells.
A short description of data set [26]: Selectivity ratio, HC50 for hemolytic activity in rabbit RBC to MIC for antibacterial activity against Klebsiella pneumoniae ATCC 10031. The settings on record: rabbit red blood cells. The class given is toxicity.
The nature of data set [27]: Selectivity ratio, HC50 for hemolytic activity in rabbit RBC to MIC for antibacterial activity against Staphylococcus aureus ATCC 29213. The data set is classed as toxicity. To be noted: rabbit red blood cells.

A word on the HC50: it is the concentration giving 50% haemolysis. A high value points to less damage to red cells. In general, CC50 refers to the concentration that lowers cell viability or growth by half.

Consider `CCCCCCCCC(=O)NCc1ccc(O)c(OC)c1` [NONIVAMIDE], for which the MIC in data set [1], in data set [2], in [3], in [4], in data set [5] and in [7] was above 50 µg/mL each time. Further, the MIC in data set [10] (erythrocytes), in data set [13], in data set [14] and in data set [15] was above 50 µg/mL in each case. For the same compound, the result in data set [6], in [8] and in [12] was inactive. Also, the HC5 in data set [9] was above 200 µg/mL. Further, in data set [9] (rabbit red blood cells), the HC50 at 1 h was above 200 µg/mL. For the same compound, the CC50 at 24 h in [11] worked out at 62 µg/mL (≈ 211 µM); in data set [16] it was 59 µg/mL (≈ 201 µM).

In the case of `CC1(C)S[C@@H]2[C@H](NC(=O)[C@H](N)c3ccc(O)cc3)C(=O)N2[C@H]1C(=O)O` [AMOXICILLIN], in data set [17], the Activity is reported as 0.29 log10CFU/ml. For the same compound, the “fold change (FC)” value in data set [18] worked out at 16.

On to `CN[C@H](CC(C)C)C(=O)N[C@H]1C(=O)N[C@@H](CC(N)=O)C(=O)N[C@H]2C(=O)N[C@H]3C(=O)N[C@H](C(=O)N[C@H](C(=O)O)c4cc(O)cc(O)c4-c4cc3ccc4O)[C@H](O)c3ccc(c(Cl)c3)Oc3cc2cc(c3O[C@@H]2O[C@H](CO)[C@@H](O)[C@H](O)[C@H]2O[C@H]2C[C@](C)(N)[C@H](O)[C@H](C)O2)Oc2ccc(cc2Cl)[C@H]1O` [VANCOMYCIN], for which the MIC in [3] is above 50 µg/mL; in [5], 0.78 µg/mL (≈ 0.538 µM); in data set [13], 0.78 µg/mL (≈ 0.538 µM); in data set [15], 1.56 µg/mL (≈ 1.08 µM). Further, the Activity in data set [19] stood at 2.44 log10CFU/ml.

Regarding `CCn1cc(C(=O)O)c(=O)c2cc(F)c(N3CCNCC3)cc21` [NORFLOXACIN], in [20], the “fold change (FC)” value is given as 128.

In the case of `CC[C@H](C)[C@H](NC(=O)CN)C(=O)NCC(=O)N[C@@H](C)C(=O)N[C@H](C(=O)N[C@@H](CC(C)C)C(=O)N[C@@H](CCCCN)C(=O)N[C@H](C(=O)N[C@@H](CC(C)C)C(=O)N[C@H](C(=O)N[C@H](C(=O)NCC(=O)N[C@@H](CC(C)C)C(=O)N1CCC[C@H]1C(=O)N[C@@H](C)C(=O)N[C@@H](CC(C)C)C(=O)N[C@H](C(=O)N[C@@H](CO)C(=O)N[C@@H](Cc1c[nH]c2ccccc12)C(=O)N[C@H](C(=O)N[C@@H](CCCCN)C(=O)N[C@@H](CCCNC(=N)N)C(=O)N[C@@H](CCCCN)C(=O)N[C@@H](CCCNC(=N)N)C(=O)N[C@@H](CCC(N)=O)C(=O)N[C@@H](CCC(N)=O)C(N)=O)[C@@H](C)CC)[C@@H](C)CC)[C@@H](C)O)[C@@H](C)O)C(C)C)C(C)C` [MELITTIN], the MIC worked out at 3.12 µg/mL (≈ 1.1 µM) in data set [1], 6.25 µg/mL (≈ 2.2 µM) in data set [2], 6.25 µg/mL (≈ 2.2 µM) in data set [7] and 3.12 µg/mL (≈ 1.1 µM) in data set [14]. In addition, the selectivity ratio in [21] worked out at 6.1; in data set [22], 6.1; in data set [23] it was 3.1; in [10] (rabbit red blood cells), 3.1; in [24], 3.1; in [25], 3.1. Also, the selectivity ratio in [26] worked out at 3.1; in data set [27] it was 6.1. Further, in [9], the HC5 stood at 5.4 µg/mL.
